Data published in patent publication US10246456B2, “IRAK4 inhibiting agents” (BIOGEN MA INC., priority 2014, dated 2019).
Several values for one entry are separate records, joined by “and”; a condition that tells them apart may be missing. Equal values may be shown once.

target: IRAK4 (Homo sapiens (Human), UniProt Q9NWZ3); experiment: IRAK-4 AlphaScreen biochemical kinase assay; conditions: 1 nM IRAK4, 1 mM ATP, 3.5 h at RT
How it was run: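 AlphaScreen read-out: streptavidin beads bind the biotinylated peptide and protein A beads bind the anti-phosphothreonine antibody, so energy transfer reports phosphorylation of the peptide. The kinase is human IRAK-4.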

Chain of IRAK4 (Q9NWZ3 whole entry, species assumed): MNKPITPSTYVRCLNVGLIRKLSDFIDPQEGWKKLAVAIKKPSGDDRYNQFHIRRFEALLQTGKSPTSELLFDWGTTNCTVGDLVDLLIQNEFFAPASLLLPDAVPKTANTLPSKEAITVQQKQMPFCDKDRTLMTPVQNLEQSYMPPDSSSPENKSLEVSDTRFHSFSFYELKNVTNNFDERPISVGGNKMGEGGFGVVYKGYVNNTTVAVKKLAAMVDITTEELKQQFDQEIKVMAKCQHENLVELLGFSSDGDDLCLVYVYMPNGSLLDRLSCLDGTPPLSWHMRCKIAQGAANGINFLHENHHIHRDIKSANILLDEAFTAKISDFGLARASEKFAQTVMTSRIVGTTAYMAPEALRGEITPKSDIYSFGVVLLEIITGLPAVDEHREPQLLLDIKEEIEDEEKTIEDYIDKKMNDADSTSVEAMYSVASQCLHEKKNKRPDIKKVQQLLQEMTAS

SMILES	IC50
CC(N)c1cccc(-c2ccc3cnn(-c4ccccn4)c3c2)n1 (centres unmarked) [Example 122, 1-(6-(1-(pyridin-2-yl)-1H-indazol-6-yl)pyridin-2-yl)ethanamine]	100 to 1000 nM
Cc1cccc(-n2ncc3ccc(-c4cc(C(F)(F)F)cc(C(C)N)n4)cc32)n1 (centres unmarked) [Example 125, 1-(6-(1-(6-methylpyridin-2-yl)-1H-indazol-6-yl)-4-(trifluoromethyl)pyridin-2-yl)ethanamine]	100 to 1000 nM
CCC(N)c1cccc(-c2ccc3cnn(-c4cccc(C(F)(F)F)n4)c3c2)n1 (centres unmarked) [Example 127, 1-(6-(1-(6-(trifluoromethyl)pyridin-2-yl)-1H-indazol-6-yl)pyridin-2-yl)propan-1-amine]	< 100 nM
NC(c1cccc(-c2ccc3cnn(-c4cccc(C(F)(F)F)n4)c3c2)n1)C1CC1 (centres unmarked) [Example 128, cyclopropyl(6-(1-(6-(trifluoromethyl)pyridin-2-yl)-1H-indazol-6-yl)pyridin-2-yl)methanamine]	< 100 nM
Cc1cccc(-n2ncc3ccc(-c4cccc(C(C)O)n4)cc32)n1 (centres unmarked) [Example 130, 1-(6-(1-(6-methylpyridin-2-yl)-1H-indazol-6-yl)pyridin-2-yl)ethanol]	100 to 1000 nM
CCCC(N)c1cccc(-c2ccc3cnn(-c4cccc(C)n4)c3c2)n1 (centres unmarked) [Example 132, 1-(6-(1-(6-methylpyridin-2-yl)-1H-indazol-6-yl)pyridin-2-yl)butan-1-amine]	< 100 nM
Cc1csc(-n2ncc3ccc(-c4cccc(C(C)N)n4)cc32)n1 (centres unmarked) [Example 134, 1-(6-(1-(4-methylthiazol-2-yl)-1H-indazol-6-yl)pyridin-2-yl)ethanamine]	100 to 1000 nM
Cc1nc(-n2ncc3ccc(-c4cccc(C(C)N)n4)cc32)cs1 (centres unmarked) [Example 136, 1-(6-(1-(2-methylthiazol-4-yl)-1H-indazol-6-yl)pyridin-2-yl)ethanamine]	100 to 1000 nM
Cc1cccc(-n2ncc3ccc(-c4ncc(CN)s4)cc32)n1 [Example 140, (2-(1-(6-methylpyridin-2-yl)-1H-indazol-6-yl)thiazol-5-yl)methanamine]	100 to 1000 nM
CCC[C@H](N)c1cccc(-c2ccc3cnn(-c4cccc(CO)n4)c3c2)n1 [Example 145, (S)-(6-(6-(6-(1-aminobutyl)pyridin-2-yl)-1H-indazol-1-yl)pyridin-2-yl)methanol]	< 100 nM
CCC[C@@H](N)c1cccc(-c2ccc3cnn(-c4cccc(CO)n4)c3c2)n1 [Example 146, (R)-(6-(6-(6-(1-aminobutyl)pyridin-2-yl)-1H-indazol-1-yl)pyridin-2-yl)methanol]	< 100 nM
Cc1cccc(-n2ncc3ccc(-c4cncc(N5CCCC5)c4)cc32)n1 [Example 203, 1-(6-methylpyridin-2-yl)-6-(5-(pyrrolidin-1-yl)pyridin-3-yl)-1H-indazole]	1000 to 10000 nM
Nc1cncc(-c2ccc3cnn(-c4cccc(C5CCCC5)n4)c3c2)c1 [Example 205, 5-(1-(6-cyclopentylpyridin-2-yl)-1H-indazol-6-yl)pyridin-3-amine]	> 10000 nM
Cc1cccc(-n2ncc3ccc(-c4cccc5c4CCNC5=O)cc32)n1 [Example 206, 5-(1-(6-methylpyridin-2-yl)-1H-indazol-6-yl)-3,4-dihydroisoquinolin-1(2H)-one]	> 10000 nM
CC(=O)c1cccc(-c2cc(F)c3cnn(-c4cccc(C(F)(F)F)n4)c3c2)n1 [Example 207, 1-(6-(4-fluoro-1-(6-(trifluoromethyl)pyridin-2-yl)-1H-indazol-6-yl)pyridin-2-yl)ethanone]	1000 to 10000 nM

The next lines start with the values.

IC50	SMILES
< 100 nM	CC(N)c1cccc(-c2ccc3cnn(-c4cccc(CO)n4)c3c2)n1 (centres unmarked) [Example 123, (6-(6-(6-(1-aminoethyl)pyridin-2-yl)-1H-indazol-1-yl)pyridin-2-yl)methanol]
< 100 nM	Cc1cc(-c2ccc3cnn(-c4cccc(C)n4)c3c2)nc(C(C)N)c1 (centres unmarked) [Example 124, 1-(4-methyl-6-(1-(6-methylpyridin-2-yl)-1H-indazol-6-yl)pyridin-2-yl)ethanamine]
< 100 nM	CC(N)c1cccc(-c2ccc3cnn(-c4cccc(C(N)=O)n4)c3c2)n1 (centres unmarked) [Example 126, 6-(6-(6-(1-aminoethyl)pyridin-2-yl)-1H-indazol-1-yl)picolinamide]
< 100 nM	CC(C)(N)c1cccc(-c2ccc3cnn(-c4cccc(C(F)(F)F)n4)c3c2)n1 [Example 129, 2-(6-(1-(6-(trifluoromethyl)pyridin-2-yl)-1H-indazol-6-yl)pyridin-2-yl)propan-2-amine]
< 100 nM	Cc1cccc(-n2ncc3ccc(-c4cccc(C(N)C5CC5)n4)cc32)n1 (centres unmarked) [Example 131, cyclopropyl(6-(1-(6-methylpyridin-2-yl)-1H-indazol-6-yl)pyridin-2-yl)methanamine]
100 to 1000 nM	Cc1cnc(-n2ncc3ccc(-c4cccc(C(C)N)n4)cc32)s1 (centres unmarked) [Example 135, 1-(6-(1-(5-methylthiazol-2-yl)-1H-indazol-6-yl)pyridin-2-yl)ethanamine]
100 to 1000 nM	CC(N)c1cccc(-c2ccc3cnn(-c4ccn(C)n4)c3c2)n1 (centres unmarked) [Example 137, 1-(6-(1-(1-methyl-1H-pyrazol-3-yl)-1H-indazol-6-yl)pyridin-2-yl)ethanamine]
100 to 1000 nM and 1000 to 10000 nM	CC(N)c1cccc(-c2ccc3cnn(-c4cn(C)cn4)c3c2)n1 (centres unmarked) [Example 138, 1-(6-(1-(1-methyl-1H-imidazol-4-yl)-1H-indazol-6-yl)pyridin-2-yl)ethanamine]
100 to 1000 nM	Cc1cccc(-n2ncc3ccc(-c4nc(CN)cs4)cc32)n1 [Example 139, (2-(1-(6-methylpyridin-2-yl)-1H-indazol-6-yl)thiazol-4-yl)methanamine]
< 100 nM	Cc1cccc(-n2ncc3ccc(-c4cccc([C@@H](C)N)n4)cc32)n1 [Example 141, (R)-1-(6-(1-(6-methylpyridin-2-yl)-1H-indazol-6-yl)pyridin-2-yl)ethanamine]
< 100 nM	Cc1cccc(-n2ncc3ccc(-c4cccc([C@H](C)N)n4)cc32)n1 [Example 142, (S)-1-(6-(1-(6-methylpyridin-2-yl)-1H-indazol-6-yl)pyridin-2-yl)ethanamine]
< 100 nM	C[C@H](N)c1cccc(-c2ccc3cnn(-c4cccc(CO)n4)c3c2)n1 [Example 143, (S)-(6-(6-(6-(1-aminoethyl)pyridin-2-yl)-1H-indazol-1-yl)pyridin-2-yl)methanol]
< 100 nM	C[C@@H](N)c1cccc(-c2ccc3cnn(-c4cccc(CO)n4)c3c2)n1 [Example 144, (R)-(6-(6-(6-(1-aminoethyl)pyridin-2-yl)-1H-indazol-1-yl)pyridin-2-yl)methanol]
> 10000 nM	Cc1cccc(-n2ncc3ccc(-c4cc(C(N)=O)ccn4)cc32)n1 [Example 201, 2-(1-(6-methylpyridin-2-yl)-1H-indazol-6-yl)isonicotinamide]
100 to 1000 nM	Cc1cccc(-n2ncc3ccc(-c4cncc(N(C)C)c4)cc32)n1 [Example 202, N,N-dimethyl-5-(1-(6-methylpyridin-2-yl)-1H-indazol-6-yl)pyridin-3-amine]
100 to 1000 nM	Cc1cccc(-n2ncc3ccc(-c4cc(N)cnc4C)cc32)n1 [Example 204, 6-methyl-5-(1-(6-methylpyridin-2-yl)-1H-indazol-6-yl)pyridin-3-amine]
> 10000 nM	O=C1CCc2ccc(-c3ccc4cnn(-c5cccc(C(F)(F)F)n5)c4c3)nc21 [Example 210, 2-(1-(6-(trifluoromethyl)pyridin-2-yl)-1H-indazol-6-yl)-5H-cyclopenta[b]pyridin-7(6H)-one]
